Where “and” joins values, the source holds several entries; their conditions need not be identical. Equal entries are not always repeated. Inconclusive results and toxic doses are left out.
Tested on: AKR/Lw mice, AKR lymphoma ip, median survival T/C
Experiment: NCI In Vivo Anticancer Drug Screen. Data for tumor model Lymphoma AKR (Transplanted) (intraperitoneal) in AKR/Lw mice
Details: endpoint: median survival time, higher = longer survival
Experimental: The antitumor activity of compounds was measured in mice bearing transplantable tumors. Survival or tumor size were measured and the results are expressed as the measurement made in the treated group (T) divided by the measurement made in the vehicle treated control group (C). The tumor model used in this assay is Lymphoma AKR (Transplanted) (intraperitoneal) in AKR/Lw mice

[1] = dose: 100.0 mg/kg/injection, schedule: Q01DX001 (ip), vehicle: Klucel (hydroxypropylcellulose) (HPC)
[2] = dose: 200.0 mg/kg/injection, schedule: Q01DX001 (ip), vehicle: Klucel (hydroxypropylcellulose) (HPC)

O=C(O)CCCc1ccc(N(CCCl)CCCl)cc1
T/C (dose: 0.12 mg/kg/injection, schedule: Q01DX009 (ip), vehicle: Klucel (hydroxypropylcellulose) (HPC)): 97 % of control | T/C (dose: 0.25 mg/kg/injection, schedule: Q01DX009 (ip), vehicle: Klucel (hydroxypropylcellulose) (HPC)): 94 % of control and 96 % of control | T/C (dose: 0.5 mg/kg/injection, schedule: Q01DX009 (ip), vehicle: Klucel (hydroxypropylcellulose) (HPC)): 100 % of control | T/C (dose: 1.0 mg/kg/injection, schedule: Q01DX009 (ip), vehicle: Klucel (hydroxypropylcellulose) (HPC)): 96 % of control and 102 % of control | T/C (dose: 1.2 mg/kg/injection, schedule: Q01DX009 (ip), vehicle: Klucel (hydroxypropylcellulose) (HPC)): 100 % of control | T/C (dose: 1.2 mg/kg/injection, schedule: Q04DX003 (ip), vehicle: Klucel (hydroxypropylcellulose) (HPC)): 94 % of control | T/C (dose: 1.25 mg/kg/injection, schedule: Q04DX003 (ip), vehicle: saline): 103 % of control | T/C (dose: 2.0 mg/kg/injection, schedule: Q01DX009 (ip), vehicle: Klucel (hydroxypropylcellulose) (HPC)): 100 % of control | T/C (dose: 2.5 mg/kg/injection, schedule: Q01DX009 (ip), vehicle: Klucel (hydroxypropylcellulose) (HPC)): 93 % of control and 107 % of control | T/C (dose: 2.5 mg/kg/injection, schedule: Q04DX003 (ip), vehicle: Klucel (hydroxypropylcellulose) (HPC)): 100 % of control | T/C (dose: 2.5 mg/kg/injection, schedule: Q04DX003 (ip), vehicle: saline): 86 % of control and 118 % of control | T/C (dose: 3.75 mg/kg/injection, schedule: Q01DX009 (ip), vehicle: saline): 119 % of control | T/C (dose: 4.0 mg/kg/injection, schedule: Q01DX009 (ip), vehicle: Klucel (hydroxypropylcellulose) (HPC)): 118 % of control | T/C (dose: 5.0 mg/kg/injection, schedule: Q01DX009 (ip), vehicle: Klucel (hydroxypropylcellulose) (HPC)): 86 % of control and 110 % of control | T/C (dose: 5.0 mg/kg/injection, schedule: Q04DX003 (ip), vehicle: Klucel (hydroxypropylcellulose) (HPC)): 100 % of control and 105 % of control and 117 % of control | T/C (dose: 5.0 mg/kg/injection, schedule: Q04DX003 (ip), vehicle: saline): 93 % of control and 97 % of control | T/C (dose: 6.2 mg/kg/injection, schedule: Q01DX001 (ip), vehicle: Klucel (hydroxypropylcellulose) (HPC)): 95 % of control and 120 % of control | T/C (dose: 6.25 mg/kg/injection, schedule: Q01DX009 (ip), vehicle: saline): 97 % of control | T/C (dose: 7.5 mg/kg/injection, schedule: Q01DX009 (ip), vehicle: Klucel (hydroxypropylcellulose) (HPC)): 106 % of control | T/C (dose: 7.5 mg/kg/injection, schedule: Q01DX009 (ip), vehicle: saline): 122 % of control | T/C (dose: 12.5 mg/kg/injection, schedule: Q01DX001 (ip), vehicle: Klucel (hydroxypropylcellulose) (HPC)): 109 % of control and 118 % of control | T/C (dose: 12.5 mg/kg/injection, schedule: Q01DX001 (ip), vehicle: saline): 109 % of control and 111 % of control | T/C (dose: 15.0 mg/kg/injection, schedule: Q01DX009 (ip), vehicle: saline): 122 % of control | T/C (dose: 20.0 mg/kg/injection, schedule: Q04DX003 (ip), vehicle: saline): 94 % of control | T/C (dose: 40.0 mg/kg/injection, schedule: Q04DX003 (ip), vehicle: Klucel (hydroxypropylcellulose) (HPC)): 100 % of control | T/C [1]: 104 % of control

O=C(c1ccccc1)C1CCC1
T/C [1]: 95 % of control | T/C [2]: 95 % of control

CC(C)(C)/[N+]([O-])=[N+](\[O-])C(C)(C)C (tested in a mixture with another compound)
T/C [1]: 95 % of control | T/C [2]: 97 % of control | T/C (dose: 400.0 mg/kg/injection, schedule: Q01DX001 (ip), vehicle: Klucel (hydroxypropylcellulose) (HPC)): 100 % of control

c1cc2cc3c(cc2c2c1CC1c4cc5c(cc4CCN1C2)OCO5)OCO3 (centres undefined)
T/C [1]: 102 % of control | T/C (dose: 100.0 mg/kg/injection, schedule: Q04DX003 (ip), vehicle: Klucel (hydroxypropylcellulose) (HPC)): 103 % of control | T/C [2]: 97 % of control | T/C (dose: 200.0 mg/kg/injection, schedule: Q04DX003 (ip), vehicle: Klucel (hydroxypropylcellulose) (HPC)): 96 % of control | T/C (dose: 400.0 mg/kg/injection, schedule: Q04DX003 (ip), vehicle: Klucel (hydroxypropylcellulose) (HPC)): 92 % of control

CC[C@]1(O)C[C@H]2CN(CCc3c([nH]c4ccccc34)[C@@](C(=O)OC)(c3cc4c(cc3OC)N(C=O)[C@H]3[C@@](O)(C(=O)OC)[C@H](OC(C)=O)[C@]5(CC)C=CCN6CC[C@]43[C@@H]65)C2)C1
T/C (dose: 0.01 mg/kg/injection, schedule: Q10DX002 (ip), vehicle: saline): 113 % of control | T/C (dose: 0.02 mg/kg/injection, schedule: Q01DX001 (ip), vehicle: saline): 110 % of control | T/C (dose: 0.02 mg/kg/injection, schedule: Q04DX003 (ip), vehicle: saline): 86 % of control | T/C (dose: 0.02 mg/kg/injection, schedule: Q10DX002 (ip), vehicle: saline): 119 % of control | T/C (dose: 0.03 mg/kg/injection, schedule: Q04DX003 (ip), vehicle: saline): 93 % of control and 107 % of control and 114 % of control | T/C (dose: 0.03 mg/kg/injection, schedule: Q10DX002 (ip), vehicle: saline): 119 % of control | T/C (dose: 0.05 mg/kg/injection, schedule: Q01DX001 (ip), vehicle: saline): 101 % of control | T/C (dose: 0.05 mg/kg/injection, schedule: Q04DX003 (ip), vehicle: saline): 94 % of control | T/C (dose: 0.06 mg/kg/injection, schedule: Q04DX002 (ip), vehicle: saline): 110 % of control | T/C (dose: 0.06 mg/kg/injection, schedule: Q04DX003 (ip), vehicle: saline): 111 % of control and 116 % of control | T/C (dose: 0.1 mg/kg/injection, schedule: Q01DX001 (ip), vehicle: saline): 103 % of control | T/C (dose: 0.1 mg/kg/injection, schedule: Q04DX003 (ip), vehicle: saline): 94 % of control | T/C (dose: 0.12 mg/kg/injection, schedule: Q01DX001 (ip), vehicle: saline): 100 % of control and 111 % of control and 119 % of control | T/C (dose: 0.12 mg/kg/injection, schedule: Q01DX009 (ip), vehicle: saline): 109 % of control | T/C (dose: 0.13 mg/kg/injection, schedule: Q04DX002 (ip), vehicle: water): 90 % of control and 95 % of control | T/C (dose: 0.2 mg/kg/injection, schedule: Q04DX003 (ip), vehicle: saline): 94 % of control | T/C (dose: 0.25 mg/kg/injection, schedule: Q01DX009 (ip), vehicle: saline): 109 % of control | T/C (dose: 0.4 mg/kg/injection, schedule: Q04DX003 (ip), vehicle: saline): 118 % of control | T/C (dose: 0.5 mg/kg/injection, schedule: Q04DX002 (ip), vehicle: saline): 223 % of control | T/C (dose: 0.5 mg/kg/injection, schedule: Q04DX002 (ip), vehicle: water): 107 % of control and 109 % of control | T/C (dose: 0.75 mg/kg/injection, schedule: Q01DX001 (ip), vehicle: saline): 157 % of control | T/C (dose: 1.0 mg/kg/injection, schedule: Q04DX003 (ip), vehicle: saline): 359 % of control | T/C (dose: 1.0 mg/kg/injection, schedule: Q10DX002 (ip), vehicle: saline): 33 % of control | T/C (dose: 1.5 mg/kg/injection, schedule: Q10DX002 (ip), vehicle: saline): 68 % of control | T/C (dose: 0.2 micrograms/kg/injection, schedule: Q01DX009 (ip), vehicle: saline): 103 % of control | T/C (dose: 0.5 micrograms/kg/injection, schedule: Q01DX009 (ip), vehicle: saline): 100 % of control | T/C (dose: 0.6 micrograms/kg/injection, schedule: Q01DX009 (ip), vehicle: saline): 96 % of control | T/C (dose: 1.0 micrograms/kg/injection, schedule: Q01DX009 (ip), vehicle: saline): 86 % of control and 100 % of control | T/C (dose: 1.2 micrograms/kg/injection, schedule: Q01DX009 (ip), vehicle: saline): 87 % of control | T/C (dose: 2.0 micrograms/kg/injection, schedule: Q01DX009 (ip), vehicle: saline): 94 % of control | T/C (dose: 6.0 micrograms/kg/injection, schedule: Q01DX009 (ip), vehicle: saline): 102 % of control and 114 % of control | T/C (dose: 15.0 micrograms/kg/injection, schedule: Q01DX009 (ip), vehicle: saline): 122 % of control | T/C (dose: 20.0 micrograms/kg/injection, schedule: Q01DX009 (ip), vehicle: saline): 97 % of control | T/C (dose: 25.0 micrograms/kg/injection, schedule: Q01DX009 (ip), vehicle: saline): 97 % of control | T/C (dose: 30.0 micrograms/kg/injection, schedule: Q01DX009 (ip), vehicle: saline): 112 % of control | T/C (dose: 50.0 micrograms/kg/injection, schedule: Q01DX009 (ip), vehicle: saline): 102 % of control | T/C (dose: 60.0 micrograms/kg/injection, schedule: Q01DX009 (ip), vehicle: saline): 120 % of control | T/C (dose: 100.0 micrograms/kg/injection, schedule: Q01DX009 (ip), vehicle: saline): 114 % of control

From PubChem BioAssay AID190 (DTP/NCI, 2004)
